Consider 27 compounds from patent US10144732B2 (BIOGEN MA INC., priority 2014, dated 2018).

Where a name gives a salt, the structure may show the parent alone.

The IC50 is the concentration needed to halve the response being measured.

The first test has as its target T1, Human ATX protein (Homo sapiens, UniProt Q13822).
T1 construct: made in house
The experiment in a line: ATX biochemical assay (FRET, FS-3 substrate). The following applies: FRET assay, FS-3 2 μM, ATX 1.0 μg/mL, 30 minutes preincubation, 2 hours reaction at room temperature; read-out: IC50. In a few lines:
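FRET read-out: cleavage of FS-3 (2 μM final) unquenches fluorescein, measured at 485/538 nm after 2 h at room temperature. Before substrate addition, in-house-expressed human autotaxin (1.0 μg/mL) sat with compound for 30 min in pH 7.4 Tris/NaCl/KCl/CaCl2/MgCl2 buffer containing fatty acid free-BSA at 1 mg/mL.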
`O=C(O)[C@@H]1CC(CC(=O)N2CCc3c(C(F)(F)F)nn(Cc4ccc(Cl)cc4F)c3C2)CN1` (stereo partly drawn) [Example 9-8, (2s)-4-(2-(1-(4-Chloro-2-fluorobenzyl)-3-(trifluoromethyl)-4,5-dihydro-1H-pyrazolo[3,4-c]pyridin-6(7H)-yl)-2-oxoethyl)pyrrolidine-2-carboxylic acid TFA salt]: the IC50 is ≤ 100 nM.

As to `CC(c1ccc(F)cc1)n1nc(C(F)(F)F)c2c1CN(C(=O)C[C@H]1CC[C@H](C(=O)O)CC1)CC2` (stereo partly drawn) [Example 5-19, trans-4-(2-(1-(1-(4-Fluorophenyl)ethyl)-3-(trifluoromethyl)-4,5-dihydro-1H-pyrazolo[3,4-c]pyridin-6(7H)-yl)-2-oxoethyl)cyclohexanecarboxylic acid], the IC50 is ≤ 100 nM.

Turning to `O=C(C[C@H]1CC[C@H](C(=O)O)CC1)N1CCc2c(C(F)(F)F)nn(Cc3ccncc3)c2C1` [Example 5-24, trans-4-(2-Oxo-2-(1-(pyridin-4-ylmethyl)-3-(trifluoromethyl)-4,5-dihydro-1H-pyrazolo[3,4-c]pyridin-6(7H)-yl)ethyl)cyclohexanecarboxylic acid], the IC50 was ≤ 100 nM.

As to `O=C(C[C@H]1CC[C@H](C(=O)O)CC1)N1CCc2c(C(F)(F)F)nn(Cc3cc(F)c(F)c(F)c3)c2C1` [Example 5-33, trans-4-(2-(1-(3,4,5-Trifluorobenzyl)-3-(trifluoromethyl)-4,5-dihydro-1H-pyrazolo[3,4-c]pyridin-6(7H)-yl)-2-oxoethyl)cyclohexanecarboxylic acid], the IC50 was ≤ 100 nM.

For `CCC1CC(CC(=O)N2CCc3c(C(F)(F)F)nn(Cc4ccc(F)cc4)c3C2)CCN1C` (stereo not drawn) [Example 10-7, 2-(2-Ethyl-1-methylpiperidin-4-yl)-1-(1-(4-fluorobenzyl)-3-(trifluoromethyl)-4,5-dihydro-1H-pyrazolo[3,4-c]pyridin-6(7H)-yl)ethanone TFA salt], the IC50 is ≤ 100 nM.

Turning to `O=C(CC1CC(N2CCC2)C1)N1CCc2c(C(F)(F)F)nn(Cc3ccc(F)cc3)c2C1` (stereo not drawn) [Example 22-1, 2-(3-(Azetidin-1-yl)cyclobutyl)-1-(1-(4-fluorobenzyl)-3-(trifluoromethyl)-4,5-dihydro-1H-pyrazolo[3,4-c]pyridin-6(7H)-yl)ethanone TFA salt], the IC50 was ≤ 100 nM.

With `N#C[C@H]1CC[C@H](CC(=O)N2CCc3c(C(F)(F)F)nn(Cc4ccc(F)cc4)c3C2)CC1` [Example 21-2, trans-4-(2-(1-(4-Fluorobenzyl)-3-(trifluoromethyl)-4,5-dihydro-1H-pyrazolo[3,4-c]pyridin-6(7H)-yl)-2-oxoethyl)cyclohexanecarbonitrile], the IC50 is ≤ 100 nM.

With `O=C(C[C@H]1CC[C@H](C(=O)O)CC1)N1CCc2c(C(F)(F)F)nn(Cc3cccnc3)c2C1` [Example 5-22, trans-4-(2-Oxo-2-(1-(pyridin-3-ylmethyl)-3-(trifluoromethyl)-4,5-dihydro-1H-pyrazolo[3,4-c]pyridin-6(7H)-yl)ethyl)cyclohexanecarboxylic acid], the IC50 is ≤ 100 nM.

`O=C(CC1CCOCC1)N1CCc2c(C(F)(F)F)nn(Cc3ccc(F)cc3)c2C1` [Example 1-30, 1-(1-(4-Fluorobenzyl)-3-(trifluoromethyl)-4,5-dihydro-1H-pyrazolo[3,4-c]pyridin-6(7H)-yl)-2-(tetrahydro-2H-pyran-4-yl)ethanone]: the IC50 is ≤ 100 nM.

On to `O=C(C[C@H]1CC[C@@H](C(=O)O)CC1)N1CCc2c(C(F)(F)F)nn(Cc3ccc(Cl)cc3F)c2C1` [Example 5-2, cis-4-(2-(1-(4-Chloro-2-fluorobenzyl)-3-(trifluoromethyl)-4,5-dihydro-1H-pyrazolo[3,4-c]pyridin-6(7H)-yl)-2-oxoethyl)cyclohexanecarboxylic acid], for which the IC50 was ≤ 100 nM.

Turning to `CCOC(=O)C1CCCN(CC(=O)N2CCc3c(C(F)(F)F)nn(Cc4ccc(Cl)cc4F)c3C2)CC1` (stereo not drawn) [Example 12-17, TFA salt], the IC50 is ≤ 100 nM.

For `N#C[C@H]1CC[C@@H](CC(=O)N2CCc3c(C(F)(F)F)nn(Cc4ccc(F)cc4)c3C2)CC1` [Example 21-1, cis-4-(2-(1-(4-Fluorobenzyl)-3-(trifluoromethyl)-4,5-dihydro-1H-pyrazolo[3,4-c]pyridin-6(7H)-yl)-2-oxoethyl)cyclohexanecarbonitrile], the IC50 was ≤ 100 nM.

For the compound `CCOC(=O)[C@H]1CC[C@H](CC(=O)N2CCc3c(CO)nn(Cc4ccc(F)cc4)c3C2)CC1` [Example 1-41, trans-Ethyl-4-(2-(1-(4-fluorobenzyl)-3-(hydroxymethyl)-4,5-dihydro-1H-pyrazolo[3,4-c]pyridin-6(7H)-yl)-2-oxoethyl)cyclohexanecarboxylate], the IC50 fell in the range of 250 to 500 nM.

Regarding `CC1CC(CC(=O)N2CCc3c(C(F)(F)F)nn(Cc4ccc(Cl)cc4F)c3C2)CCN1C(=O)OC(C)(C)C` (stereo not drawn) [Example 8-5, tert-Butyl 4-(2-(1-(4-chloro-2-fluorobenzyl)-3-(trifluoromethyl)-4,5-dihydro-1H-pyrazolo[3,4-c]pyridin-6(7H)-yl)-2-oxoethyl)-2-methylpiperidine-1-carboxylate], the IC50 was ≤ 100 nM.

Turning to `CCOC(=O)C1CCCN(CC(=O)N2CCc3c(C(F)(F)F)nn(Cc4ccc(F)cc4)c3C2)C1` (stereo not drawn) [Example 12-5, Ethyl 1-(2-(1-(4-fluorobenzyl)-3-(trifluoromethyl)-4,5-dihydro-1H-pyrazolo[3,4-c]pyridin-6(7H)-yl)-2-oxoethyl)piperidine-3-carboxylate], the IC50 is ≤ 100 nM.

`O=C(O)CN1CCC(CC(=O)N2CCc3c(C(F)(F)F)nn(Cc4ccc(Cl)cc4F)c3C2)CC1` [Example 15-1, 2-(4-(2-(1-(4-Chloro-2-fluorobenzyl)-3-(trifluoromethyl)-4,5-dihydro-1H-pyrazolo[3,4-c]pyridin-6(7H)-yl)-2-oxoethyl)piperidin-1-yl)acetic acid]: the IC50 is ≤ 100 nM.

As for `O=C(C[C@H]1CC[C@H](C(=O)O)CC1)N1CCc2c(-c3cccnc3)nn(Cc3ccc(F)cc3)c2C1` [Example 5-40, trans-4-(2-(1-(4-Fluorobenzyl)-3-(pyridin-3-yl)-4,5-dihydro-1H-pyrazolo[3,4-c]pyridin-6(7H)-yl)-2-oxoethyl)cyclohexanecarboxylic acid], the IC50 is ≤ 100 nM.

On to `C[C@]1(C(=O)O)C[C@@H](CC(=O)N2CCc3c(C(F)(F)F)nn(Cc4ccc(F)cc4)c3C2)C1` [Example 7-23, cis-3-(2-(1-(4-Fluorobenzyl)-3-(trifluoromethyl)-4,5-dihydro-1H-pyrazolo[3,4-c]pyridin-6(7H)-yl)-2-oxoethyl)-1-methylcyclobutanecarboxylic acid], for which the IC50 was ≤ 100 nM.

On to `O=C(CC1CNC1)N1CCc2c(C(F)(F)F)nn(Cc3ccc(Cl)cc3F)c2C1` [Example 9-3, 2-(Azetidin-3-yl)-1-(1-(4-chloro-2-fluorobenzyl)-3-(trifluoromethyl)-4,5-dihydro-1H-pyrazolo[3,4-c]pyridin-6(7H)-yl)ethanone TFA salt], for which the IC50 was ≤ 100 nM.

`CCOC(=O)C1CCC(CC(=O)N2CCc3c(C(F)(F)F)nn(Cc4ccc(C(F)(F)F)cc4)c3C2)CC1` (stereo not drawn) [Example 1-10, Ethyl 4-(2-oxo-2-(3-(trifluoromethyl)-1-(4-(trifluoromethyl)benzyl)-4,5-dihydro-1H-pyrazolo[3,4-c]pyridin-6(7H)-yl)ethyl)cyclohexanecarboxylate]: the IC50 was ≤ 100 nM.

In the case of `CNC12CCC(C(=O)N3CCc4c(C(F)(F)F)nn(Cc5ccc(F)cc5)c4C3)(CC1)CC2` [Example 9-22, (1-(4-Fluorobenzyl)-3-(trifluoromethyl)-4,5-dihydro-1H-pyrazolo[3,4-c]pyridin-6(7H)-yl)(4-(methylamino)bicyclo[2.2.2]octan-1-yl)methanone TFA salt], the half-maximal inhibitory concentration (IC50) lay in the range of 250 to 500 nM.

Turning to `O=C(CC1CCN(c2ncccn2)CC1)N1CCc2c(C(F)(F)F)nn(Cc3ccc(F)cc3)c2C1` [Example 18-1, 1-(1-(4-Fluorobenzyl)-3-(trifluoromethyl)-4,5-dihydro-1H-pyrazolo[3,4-c]pyridin-6(7H)-yl)-2-(1-(pyrimidin-2-yl)piperidin-4-yl)ethanone TFA salt], the IC50 was ≤ 100 nM.

As for `COC(=O)[C@H]1CC[C@@H](NC(=O)N2CCc3c(C(F)(F)F)nn(Cc4ccc(Cl)cc4F)c3C2)CC1` [Example 3-1, cis-Methyl 4-(1-(4-chloro-2-fluorobenzyl)-3-(trifluoromethyl)-4,5,6,7-tetrahydro-1H-pyrazolo[3,4-c]pyridine-6-carboxamido)cyclohexanecarboxylate], the IC50 is ≤ 100 nM.

As to `CC(=O)N1CCCC(CC(=O)N2CCc3c(C(F)(F)F)nn(Cc4ccc(F)cc4)c3C2)C1` (stereo not drawn) [Example 17-1], the IC50 is ≤ 100 nM.

For the compound `CC1CC(CC(=O)N2CCc3c(C(F)(F)F)nn(Cc4ccc(Cl)cc4F)c3C2)CCN1` (stereo not drawn) [Example 9-5, 1-(1-(4-Chloro-2-fluorobenzyl)-3-(trifluoromethyl)-4,5-dihydro-1H-pyrazolo[3,4-c]pyridin-6(7H)-yl)-2-(2-methylpiperidin-4-yl)ethanone TFA salt], the IC50 is ≤ 100 nM.

For `O=C(O)C1CCCN(CC(=O)N2CCc3c(C(F)(F)F)nn(Cc4ccc(Cl)cc4F)c3C2)C1` (stereo not drawn) [Example 13-3, 1-(2-(1-(4-Chloro-2-fluorobenzyl)-3-(trifluoromethyl)-4,5-dihydro-1H-pyrazolo[3,4-c]pyridin-6(7H)-yl)-2-oxoethyl)piperidine-3-carboxylic acid], the IC50 is ≤ 100 nM.

Staying with this test, now noted: IC50, FRET assay, FS-3 2 μM, ATX 1.0 μg/mL, 30 minutes preincubation, 2 hours reaction at room temperature.
For `CN1C2CCC1CC(CC(=O)N1CCc3c(C(F)(F)F)nn(Cc4ccc(Cl)cc4F)c3C1)C2` (stereo not drawn) [Example 10-1, 1-(1-(4-Chloro-2-fluorobenzyl)-3-(trifluoromethyl)-4,5-dihydro-1H-pyrazolo[3,4-c]pyridin-6(7H)-yl)-2-(8-methyl-8-aza-bicyclo[3.2.1]octan-3-yl)ethanone TFA salt], the IC50 was ≤ 100 nM.
